Source: article PMC7822874, “Chemoprotective antimalarials identified through quantitative high-throughput screening of Plasmodium blood and liver stage parasites” (Scientific Reports, 2021)
Values joined by “and” are separate entries in the source; they are usually repeats but may differ in a detail not shown here. Equal values may be shown once. Read-outs that look alike come from different tables or passages of the source.

Tests used:
[1] = test system: luciferase-expressing P. berghei liver stage parasites in HepG2 cells; experiment: Inhibition of liver-stage development assay (ILSDA), Method 2 (WRAIR, 96-well); format: cell-based, Plasmodium berghei; conditions: for AC50: Plasmodium berghei, HepG2, Method 2
[2] = test system: P. falciparum Dd2 Cytb V259L; experiment: SYBR Green ABS proliferation assay, NCGC00473217 selected clone F06; format: cell-based, Plasmodium falciparum; parameters: log AC50, mean: unit: log M; conditions: third value triple, c9, […]; for AC50: Plasmodium falciparum, DD2, cytochrome b mutant line, read-out: log AC50, mean (converted); for log AC50, mean: cytochrome b mutant line
Summary of the method: (§1)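 Asexual blood-stage proliferation of cytochrome b-mutant Dd2 clones after 72 h compound exposure at 37 °C in low-oxygen gas, quantified as control-normalized SYBR Green-I fluorescence; differences tested by two-sided t-test.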

[3] = test system: P. falciparum Dd2 Cytb F123L; experiment: SYBR Green ABS proliferation assay, NCGC00473217 selected clone G08; format: cell-based, Plasmodium falciparum; parameters: log AC50, mean: unit: log10(M); conditions: fifth value triple, c15, […]; for AC50: Plasmodium falciparum, DD2, cytochrome b mutant line, read-out: log AC50, mean (converted); for log AC50, mean: cytochrome b mutant line
Procedure: (§2) As resistance selection studies implicated the parasite cytochrome bc1 complex in mediating reduced parasite susceptibility to both NCGC00473217 and NCGC00374598, we leveraged these drug-selected parasites to test for altered drug response to a panel of antimalarial compounds.
(§3) The P. falciparum parasite Dd2 line was cultured in vitro using standard conditions. […] Tissue culture flasks and assay plates were incubated at 37 °C under a gas mixture of 5% CO2, 5% O2 and 90% N2. […] Significant differences were assessed using two-sided Student’s t-tests. All HTS assays were stopped and read at 72 h. Percent response values represent relative growth as judged by SYBR Green-I fluorescence intensity values normalized to controls.
(§4) Fresh uninfected RBCs (0.5% hematocrit) were added on day 7 and media was changed every other day. […] Resistant parasites were maintained under drug media at a volume of 50 mL until a high parasitemia (> 5%) was achieved. Aliquots of the bulk resistant cultures were frozen in cryovials before cloning by limiting dilution in 96-well plates (seeded at 0.25 or 0.5 parasites/well)[70]. After 3 weeks of cloning, we screened for positive wells by flow cytometry with SYBR Green-stained cells. […] Parasites were harvested by saponin lysis at the trophozoite stage and genomic DNA was extracted using the QIAamp DNA Blood Midi Kit (Qiagen, Germantown, MD)[71].

[4] = test system: P. falciparum Dd2 Cytb G131S; experiment: SYBR Green ABS proliferation assay, NCGC00374598 selected clone C11; format: cell-based, Plasmodium falciparum; conditions: second value triple, c6, […]; for AC50: Plasmodium falciparum, DD2, cytochrome b mutant line, read-out: log AC50, mean (converted); for log AC50, mean: cytochrome b mutant line
Summary of the method: as §1

[5] = test system: P. falciparum Dd2 Cytb A122D; experiment: SYBR Green ABS proliferation assay, NCGC00473217 selected clone F12; format: cell-based, Plasmodium falciparum; parameters: log AC50, mean: unit: Log[M]; conditions: fourth value triple, c12, […]; for AC50: Plasmodium falciparum, DD2, cytochrome b mutant line, read-out: log AC50, mean (converted); for log AC50, mean: cytochrome b mutant line
Procedure: as §2, §3, §4

[6] = test system: Plasmodium falciparum Dd2 asexual blood stage parasites; experiment: microbe, parasite or virus in culture; parameters: species or system Plasmodium falciparum Dd2 in human erythrocytes; single determination (one 11-point concentration-response curve); conditions: Plasmodium falciparum, DD2, Erythrocyte, 72 h; read-out: AC50
[7] = test system: T1, Plasmodium falciparum Dd2-attB (parental line), asexual blood stages; experiment: microbe, parasite or virus in culture; parameters: replicate k of 3 (each line is one of three independent assays; the three lines of one compound and parasite line follow each other); conditions: n = 1; for Individual replicates / Log AC50 (M): 72 h
T1 construct: Dd2-attB, the isogenic parental line
Summary of the method: (§5)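 We compare activity in parasites carrying fumarate-using yeast DHODH with that in the parental line; mETC or parasite DHODH inhibitors are bypassed by this enzyme. Data come from three independent assays, analysed by two-sided Student's t-tests.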

[8] = test system: T2, Plasmodium falciparum Dd2-attB-ScDHODH (transgenic line expressing yeast DHODH), asexual blood stages; experiment: organism not typed; parameters: replicate k of 3 (each line is one of three independent assays; the three lines of one compound and parasite line follow each other); conditions: 72 h, n = 1
T2 construct: Dd2-attB-ScDHODH, the transgenic line that expresses yeast DHODH
Summary of the method: as §5

Compound	AC50 [2]	AC50 [3]	AC50 [4]	AC50 [5]	AC50 [6]	also measured
COc1ccc(-c2nc(C3CC3)nc3c2CCN(Cc2cc(C)on2)CC3)cc1 [NCGC00374666-01]	8.09 µM	5.31 µM	8.09 µM	6.93 µM		Max Resp (signal direction of the dose response) ([1]; Method 2, Decrease = decreasing P. berghei viability with dose, Increase = increasing signal, Inactive = no dose response): Decrease; AC50 ([1]; Hill fit, 50% of maximum activity response, read-out: AC50): 0.794 µM; AC50 ([1]; log10 of molar AC50 from Hill fit, read-out: Log AC50 (converted)): 0.794 µM
CN(C)c1nc2c(c(=O)[nH]1)CCN(Cc1ccc(F)cc1Cl)CC2 [NCGC00440505-01]	10.2 µM	1.74 µM	6.18 µM	5.51 µM	10.6 µM	
CN(C)c1nc2c(c(=O)[nH]1)CCN(Cc1ccccc1Br)CC2 [NCGC00440591-01]	13.3 µM	1.44 µM	6.93 µM	5.73 µM	9.44 µM	
CN(C)c1nc2c(c(=O)[nH]1)CCN(Cc1ccc(Br)cc1)CC2 [NCGC00440593-01]	9.79 µM	1.33 µM	5.51 µM	4.55 µM	13.3 µM	
O=c1[nH]c(N2CCOCC2)nc2c1CCN(Cc1ccccc1Br)CC2 [NCGC00440625-01]	9.44 µM	1.19 µM	6.43 µM	6.93 µM	15 µM	
O=c1[nH]c(N2CCOCC2)nc2c1CCN(Cc1ccccc1C(F)(F)F)CC2 [NCGC00440637-01]	8.09 µM	0.618 µM	3.61 µM	2.66 µM	4.73 µM	
O=c1[nH]c(N2CCOCC2)nc2c1CCN(Cc1cc(Br)ccc1F)CC2 [NCGC00440663-01]	23.7 µM	3.61 µM	6.68 µM	4.91 µM	5.31 µM	
c1ccc(OCCNc2nc(-c3cccnc3)nc3c2CCNCC3)cc1 [NCGC00443183-01]	5.73 µM	5.11 µM	6.93 µM	7.21 µM		Activity direction (Decrease / Inactive) ([1]; P. berghei liver stage, Method 2, dose response): Inactive
COc1ccc(-c2nc(C3CC3)nc3c2CCN(Cc2cccnc2)CC3)cc1 [NCGC00476959-01]	18.1 µM	13.8 µM	13.3 µM	19.5 µM	13.3 µM	
O=C(c1ccc(C(F)(F)F)cc1)N1CCc2nc(C3CC3)nc(-c3ccc(Cl)cc3)c2CC1 [NCGC00476963-01]	15.8 µM	8.41 µM	12.8 µM	15 µM	13.3 µM	
CCc1nc2c(c(-c3ccc(O)cc3)n1)CCN(Cc1ccc(OC)cc1)CC2 [NCGC00480297-01]	5.11 µM	5.31 µM	5.11 µM	6.18 µM	6.68 µM	
CCc1nc2c(c(-c3ccc(O)cc3)n1)CCN(Cc1ccccc1C(F)(F)F)CC2 [NCGC00480300-01]	4.73 µM	4.06 µM	3.9 µM	4.22 µM	2.99 µM	
CC(C)c1nc2c(c(-c3ccc(O)cc3)n1)CCN(CC1CCCCC1)CC2 [NCGC00480317-01]	5.73 µM	5.11 µM	5.73 µM	8.41 µM	4.73 µM	
CC(C)c1nc2c(c(-c3ccc(O)cc3)n1)CCN(Cc1ccc(C(F)(F)F)cc1)CC2 [NCGC00480320-01]	4.73 µM	4.55 µM	3.76 µM	4.91 µM	5.31 µM	
CC(C)c1nc2c(c(-c3ccc(O)cc3)n1)CCN(Cc1ccccc1C(F)(F)F)CC2 [NCGC00480324-01]	4.73 µM	4.22 µM	4.06 µM	4.55 µM	4.73 µM	
CC(C)c1nc2c(c(-c3ccc(O)cc3)n1)CCN(Cc1ccc(OC(F)(F)F)cc1)CC2 [NCGC00480325-01]	8.73 µM	6.68 µM	5.31 µM	6.43 µM	2.99 µM	
Cc1ccc(CN2CCc3nc(C4CC4)nc(-c4ccc(O)cc4)c3CC2)cc1 [NCGC00480348-01]	6.93 µM	6.68 µM	7.21 µM	7.78 µM	4.73 µM	
Oc1ccc(-c2nc(C3CC3)nc3c2CCN(Cc2ccc(F)cc2)CC3)cc1 [NCGC00480352-01]	7.5 µM	6.93 µM	7.78 µM			Individual replicates / Log AC50 (M) [7]: -5.2986 Log AC50 (M) and -5.2486 Log AC50 (M); AC50 ([7]; Plasmodium falciparum, DD2, 72 h, read-out: Individual replicates / Log AC50 (converted)): 5.64 µM; Individual replicates / Log AC50 (M) [8]: -5.1486 Log AC50 (M) (2×) and -5.1986 Log AC50 (M); log AC50, mean [5]: -4.975
O=C(O)C(F)(F)F.Oc1ccc(-c2nc(C3CC3)nc3c2CCN(Cc2ccc(F)cc2)CC3)cc1 [NCGC00480352-02]						Individual replicates / Log AC50 (M) [7]: -4.9986 Log AC50 (M) and -5.0986 Log AC50 (M) (2×); log AC50, mean [2]: -5.399; Individual replicates / Log AC50 (M) [8]: -5.0486 Log AC50 (M) (2×) and -4.8486 Log AC50 (M); log AC50, mean [3]: -5.432; log AC50, mean [4]: -5.315; log AC50, mean [5]: -5.349
O=C(O)C(F)(F)F.Oc1ccc(-c2nc(C3CC3)nc3c2CCN(CC2CCCCC2)CC3)cc1 [NCGC00480361-02]						Individual replicates / Log AC50 (M) [7]: -5.2486 Log AC50 (M); log AC50, mean [2]: -5.515; Individual replicates / Log AC50 (M) [8]: -5.0486 Log AC50 (M) and -5.1986 Log AC50 (M); log AC50, mean [3]: -6.465; log AC50, mean [4]: -5.282; log AC50, mean [5]: -5.499
CCCN1C(CC2CCCCC2)=N[S+](=O)([O-])c2cc(NC(=O)c3ccc(F)cc3)ccc21 [NCGC00532335-01]	5.32 µM	0.282 µM	0.861 µM	3.3 µM		
CCCN1C(Cc2ccccc2)=N[S+](=O)([O-])c2cc(NC(=O)c3cccs3)ccc21 [NCGC00532337-01]	0.796 µM	10 µM	3.05 µM	7.1 µM		
CCCN1C(Cc2ccccc2)=N[S+](=O)([O-])c2cc(NC(=O)c3ccc(F)cc3)ccc21 [NCGC00532338-01]	0.767 µM	0.356 µM	0.0893 µM	3.17 µM		
CCCN1C(CC(F)(F)F)=N[S+](=O)([O-])c2cc(NC(=O)c3cccs3)ccc21 [NCGC00532340-01]	2 µM	7.1 µM	6.32 µM	7.1 µM		
CCCN1C(COC)=N[S+](=O)([O-])c2cc(NC(=O)c3cccs3)ccc21 [NCGC00532347-01]	8.93 µM	0.00796 µM	1.78 µM	8.93 µM		
CCCN1C(CC2CCCCC2)=N[S+](=O)([O-])c2cc(NC(=O)c3cccs3)ccc21 [NCGC00532404-01]	1.5 µM	3.99 µM	0.966 µM	1.53 µM		
CCCN1C(CC(C)C)=N[S+](=O)([O-])c2cc(NC(=O)Nc3cccs3)ccc21 [NCGC00537523-01]	5.22 µM	9.66 µM	2.67 µM	9.29 µM		
CCCN1C(CC2CCOCC2)=N[S+](=O)([O-])c2cc(NC(=O)c3ccc(F)cc3)ccc21 [NCGC00537661-01]	5.02 µM	4.84 µM	0.2 µM	5.86 µM		
CCCN1C(CC2CCOCC2)=N[S+](=O)([O-])c2cc(NC(=O)c3cccs3)ccc21 [NCGC00537663-01]	4.66 µM	3.56 µM	3.7 µM	2.82 µM		
CCCN1C(CC2CCC2)=N[S+](=O)([O-])c2cc(NC(=O)c3cccs3)ccc21 [NCGC00537664-01]	1.19 µM	1.78 µM	0.466 µM	1.36 µM		
